Test systems include MDA-MB-231; SF-295; MDA-N; SW-620; OVCAR-4; MDA-MB-435; SNB-75; LXFL 529; TK-10; MOLT-4; CAKI-1; BT-549; SNB-19; NCI-H226; HCC 2998; SK-MEL-2; IGROV-1; PC-3; HOP-92.
Common to all, as to assay: inhibition of tumour cell growth, NCI panel, 48 h

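Cultured in 96-well plates, cells were exposed to test compound for 48 hours across five concentrations. Abbreviation: GI50, concentration required for 50% inhibition of growth.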 Calls of active or inactive are those of the source. Rule as the data show it: active = GI50 up to about 1.1 µM and inactive = higher. A value given as a limit tells only on which side of the number the result lay.

`COc1cccc2c1C(=O)c1c(O)c3c(c(O)c1C2=O)C[C@@](O)(C(=O)CO)C[C@@H]3OC1CC(N)C(OC)C(C)O1` (some centres undefined): the GI50 was 0.474 µM (active) with MDA-MB-231; 0.0206 µM (active) in the experiment with SF-295; 0.352 µM (active) with MDA-N; 0.0249 µM (active) in the experiment on SW-620; 0.458 µM (active) in the experiment on OVCAR-4; 0.267 µM (active) with MDA-MB-435. Also, the GI50 in the experiment with SNB-75 is 0.0282 µM (active); in the experiment with LXFL 529, 0.0776 µM (active); with TK-10, 0.838 µM (active); in the experiment on MOLT-4, < 0.01 µM (active); in the experiment on CAKI-1, 0.054 µM (active); with BT-549 it was 0.27 µM (active). The GI50 is 0.0452 µM (active) with SNB-19; 0.0553 µM (active) with NCI-H226; 0.139 µM (active) in the experiment on HCC 2998; 0.161 µM (active) with SK-MEL-2; 0.108 µM (active) in the experiment on IGROV-1; 0.153 µM (active) in the experiment on PC-3. Moreover, the GI50 in the experiment with HOP-92 is 0.0612 µM (active).
Turning to `N#CCCC1C(C#N)C2CC1C1C3C=CC(C3)C21` (centres undefined), the GI50 in the experiment with MDA-MB-231, in the experiment on SF-295, with MDA-N, in the experiment on SW-620, in the experiment on OVCAR-4 and in the experiment on MDA-MB-435 was > 100 µM (inactive) each time. For the same molecule, the GI50 in the experiment on SNB-75, with TK-10, with MOLT-4, in the experiment with CAKI-1, in the experiment with BT-549 and with SNB-19 was > 100 µM (inactive) in each case. Besides, the GI50 in the experiment on NCI-H226, in the experiment on HCC 2998, in the experiment with SK-MEL-2, in the experiment with IGROV-1, in the experiment with PC-3 and with HOP-92 was > 100 µM (inactive) throughout.
As to `Nc1nc(F)nc2c1ncn2C1OC(CO)C(O)C1O` (centres undefined), the GI50 with MDA-MB-231 is > 100 µM (inactive); in the experiment on SF-295, > 100 µM (inactive); with MDA-N, > 58.6 µM (inactive); in the experiment on SW-620 it was 69 µM (inactive); with OVCAR-4, > 100 µM (inactive); in the experiment with MDA-MB-435, 35.7 µM (inactive). Besides, the GI50 in the experiment on SNB-75 was > 100 µM (inactive); with TK-10 it was > 100 µM (inactive); with MOLT-4 it was 1.14 µM (inactive); in the experiment with CAKI-1, 34.6 µM (inactive); in the experiment with BT-549 it was 57.5 µM (inactive); in the experiment with SNB-19, 19.2 µM (inactive). The GI50 in the experiment on NCI-H226 was > 100 µM (inactive); in the experiment with HCC 2998 it was 49.3 µM (inactive); in the experiment on SK-MEL-2 it was > 100 µM (inactive); in the experiment on IGROV-1, > 100 µM (inactive); in the experiment on PC-3 it was 30.5 µM (inactive); in the experiment on HOP-92, 8.79 µM (inactive).
Consider `Cc1ccc(C(=O)N(Cc2ccccc2)Cc2ccccc2)cc1/N=N/N(C)C`, for which the GI50 is 22.9 µM (inactive) with MDA-MB-231; 9.29 µM (inactive) in the experiment with SF-295; 30.2 µM (inactive) in the experiment on MDA-N; 43.1 µM (inactive) in the experiment with SW-620; 11.2 µM (inactive) in the experiment on OVCAR-4; 22.4 µM (inactive) with MDA-MB-435. For the same molecule, the GI50 was 6.31 µM (inactive) with LXFL 529; 33 µM (inactive) with TK-10; 26.4 µM (inactive) in the experiment with MOLT-4; 6.82 µM (inactive) in the experiment with CAKI-1; 18.5 µM (inactive) in the experiment with BT-549; 15 µM (inactive) in the experiment on SNB-19. In addition, the GI50 with NCI-H226 is 19.1 µM (inactive); with HCC 2998, 29.6 µM (inactive); with SK-MEL-2, 3.08 µM (inactive); in the experiment with IGROV-1, 40.1 µM (inactive); in the experiment with PC-3, 25.9 µM (inactive); in the experiment on HOP-92, 11.9 µM (inactive).
Regarding `CC(NC(=O)/C(C#N)=C/c1ccc2[nH]ccc2c1)c1ccccc1` (centres undefined), the GI50 in the experiment on SF-295 was 17.1 µM (inactive); with MDA-N, 16.2 µM (inactive); with SW-620, 18.3 µM (inactive); with OVCAR-4, 20.2 µM (inactive); with MDA-MB-435, 13.9 µM (inactive); in the experiment with SNB-75 it was 31.4 µM (inactive). The GI50 in the experiment on LXFL 529 was 19.5 µM (inactive); in the experiment on TK-10, 17.9 µM (inactive); in the experiment with MOLT-4 it was 20.8 µM (inactive); in the experiment with CAKI-1 it was 29.3 µM (inactive); with BT-549 it was 11.2 µM (inactive); with SNB-19, 19.6 µM (inactive). Further, the GI50 is 24.1 µM (inactive) in the experiment on NCI-H226; 19.8 µM (inactive) in the experiment with HCC 2998; 20.8 µM (inactive) with SK-MEL-2; 17.2 µM (inactive) in the experiment on IGROV-1; 20.3 µM (inactive) in the experiment on PC-3; 14.5 µM (inactive) in the experiment with HOP-92.
For the molecule `COC(=O)C1(C(=O)OC)Cc2ccc(OC)cc2C2=C1C(=O)c1ccccc1C2=O`, the GI50 with MDA-MB-231 was 1.99 µM (inactive); in the experiment on SF-295 it was 3.77 µM (inactive); in the experiment with MDA-N it was 1.83 µM (inactive); with SW-620 it was 6.47 µM (inactive); in the experiment on OVCAR-4 it was 1.77 µM (inactive); in the experiment on MDA-MB-435, 1.97 µM (inactive). In addition, the GI50 with SNB-75 was 17.7 µM (inactive); in the experiment on TK-10, 18.4 µM (inactive); in the experiment with MOLT-4, 1.53 µM (inactive); with CAKI-1 it was 0.423 µM (active); with BT-549 it was 19.1 µM (inactive); with SNB-19 it was 16.9 µM (inactive). Further, the GI50 was 17.7 µM (inactive) with NCI-H226; 19.5 µM (inactive) in the experiment on HCC 2998; 5.7 µM (inactive) in the experiment on SK-MEL-2; 2.77 µM (inactive) in the experiment on IGROV-1; 1.87 µM (inactive) in the experiment with PC-3; 2.69 µM (inactive) in the experiment on HOP-92.
On to `CC(=N\N)/C(C)=N/N=C(C)/C(C)=N/N=C(C)/C(C)=N/N=C(C)/C(C)=N/N`, for which the GI50 with MDA-MB-231, in the experiment with SF-295, with MDA-N, with SW-620, with OVCAR-4 and in the experiment with MDA-MB-435 was > 100 µM (inactive) each time. For the same molecule, the GI50 was > 100 µM (inactive) in the experiment with SNB-75; > 100 µM (inactive) with TK-10; 20.9 µM (inactive) in the experiment on MOLT-4; > 100 µM (inactive) in the experiment on CAKI-1; 97.1 µM (inactive) with BT-549; > 100 µM (inactive) with SNB-19. The GI50 with NCI-H226 was > 100 µM (inactive); with HCC 2998, > 100 µM (inactive); in the experiment with SK-MEL-2, > 100 µM (inactive); with IGROV-1, > 100 µM (inactive); in the experiment with PC-3, > 100 µM (inactive); with HOP-92, 0.316 µM (active).
Turning to `COC1=CC(=O)c2c(cc(COP(=O)(OCC3OC(n4cc(F)c(=O)[nH]c4=O)CC3O)N(C)CCCCCl)n2C)C1=O` (centres undefined), the GI50 in the experiment on MDA-MB-231 is 3.82 µM (inactive); in the experiment with SF-295 it was < 0.0132 µM (active); in the experiment with MDA-N, 0.41 µM (active); with SW-620, 0.141 µM (active); in the experiment with OVCAR-4, 1.82 µM (inactive); in the experiment on MDA-MB-435, 1.04 µM (active). Also, the GI50 in the experiment with SNB-75 is < 0.0124 µM (active); in the experiment with TK-10, 1.81 µM (inactive); with MOLT-4, 0.0527 µM (active); with CAKI-1, 0.0102 µM (active); in the experiment on BT-549 it was 1.56 µM (inactive); with SNB-19, 0.951 µM (active). Moreover, the GI50 is 0.546 µM (active) in the experiment with NCI-H226; < 0.01 µM (active) in the experiment on HCC 2998; 17.7 µM (inactive) in the experiment with SK-MEL-2; 0.479 µM (active) in the experiment with IGROV-1; 0.173 µM (active) with PC-3; 0.137 µM (active) in the experiment on HOP-92.
As for `CN(C)CS/C(N)=N\C(O)C(Cl)(Cl)Cl` (centres undefined), the GI50 with MDA-MB-231, in the experiment on SF-295, in the experiment on MDA-N, in the experiment on SW-620, in the experiment with OVCAR-4 and in the experiment with MDA-MB-435 was > 100 µM (inactive) in each case. Also, the GI50 in the experiment with SNB-75, with TK-10, with MOLT-4, in the experiment on CAKI-1, in the experiment on BT-549 and in the experiment with SNB-19 was > 100 µM (inactive) throughout. Besides, the GI50 with NCI-H226, in the experiment on HCC 2998, with SK-MEL-2, in the experiment on IGROV-1, with PC-3 and with HOP-92 was > 100 µM (inactive) in each case.
As to `COc1cc2ncnc(Nc3cccc(Br)c3)c2cc1OC`, the GI50 in the experiment on MDA-MB-231 was 5.61 µM (inactive); in the experiment on SF-295, 3.17 µM (inactive); in the experiment on MDA-N, 7.26 µM (inactive); with SW-620, 13.2 µM (inactive); in the experiment on OVCAR-4, 4.07 µM (inactive); with MDA-MB-435, 7.48 µM (inactive). Besides, the GI50 in the experiment with SNB-75 was 3.05 µM (inactive); in the experiment with TK-10, 0.653 µM (active); with MOLT-4 it was 16.6 µM (inactive); in the experiment with CAKI-1, 1.37 µM (inactive); in the experiment on BT-549 it was 12.8 µM (inactive); with SNB-19, 15.2 µM (inactive). In addition, the GI50 in the experiment on NCI-H226 is 3.25 µM (inactive); with HCC 2998, 3.26 µM (inactive); in the experiment on SK-MEL-2, 3.14 µM (inactive); with IGROV-1 it was 2.02 µM (inactive); in the experiment with PC-3, 3.77 µM (inactive); in the experiment with HOP-92, 3.97 µM (inactive).
In the case of `Oc1c(NCn2nc(CCCCCCCCc3nn(CNc4ccc5ccccc5c4O)c(=S)o3)oc2=S)ccc2ccccc12`, the GI50 in the experiment on MDA-MB-231 was 20 µM (inactive); in the experiment with SF-295, 33.7 µM (inactive); in the experiment with MDA-N, 17.2 µM (inactive); with SW-620, 35.6 µM (inactive); with OVCAR-4, 76.2 µM (inactive); in the experiment with MDA-MB-435 it was 12.5 µM (inactive). In addition, the GI50 in the experiment with SNB-75 is > 100 µM (inactive); in the experiment on TK-10, 68.1 µM (inactive); with MOLT-4, > 100 µM (inactive); with CAKI-1 it was > 100 µM (inactive); with BT-549, > 100 µM (inactive); in the experiment with SNB-19 it was > 100 µM (inactive). The GI50 in the experiment with NCI-H226 was > 100 µM (inactive); in the experiment on HCC 2998, > 100 µM (inactive); in the experiment with SK-MEL-2, 42.8 µM (inactive); in the experiment with IGROV-1 it was 50.2 µM (inactive); in the experiment with PC-3, > 100 µM (inactive); in the experiment with HOP-92, > 100 µM (inactive).

The values are drawn from ChEMBL document CHEMBL1201862, “PubChem BioAssay data set” (2004).
